“And” between values parts separate entries of the source, which are not always exact repeats. Equal entries are not always repeated. Toxic doses and inconclusive results are not listed. How the source made its calls: active means survival T/C of 150% or more; inactive means T/C below 125% in these data.
Tested on: CD2F1 mice, L1210 leukemia ip, survival T/C
Assay: NCI In Vivo Anticancer Drug Screen. Data for tumor model L1210 Leukemia (intraperitoneal) in CD2F1 (CDF1) mice
Details: endpoint: mean survival time, higher = longer survival
Summary of the method: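 Antitumor effect is scored in animals hosting a serially transplanted tumor. Values compare compound-dosed animals against vehicle-only controls as a simple quotient.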

[1] = dose: 100.0 mg/kg/injection, schedule: Q04DX002 (ip), vehicle: saline with Tween-80
[2] = dose: 200.0 mg/kg/injection, schedule: Q04DX002 (ip), vehicle: saline with Tween-80
[3] = dose: 400.0 mg/kg/injection, schedule: Q04DX002 (ip), vehicle: saline with Tween-80
[4] = dose: 100.0 mg/kg/injection, schedule: Q04DX003 (ip), vehicle: saline with Tween-80
[5] = dose: 200.0 mg/kg/injection, schedule: Q04DX003 (ip), vehicle: saline with Tween-80
[6] = dose: 400.0 mg/kg/injection, schedule: Q04DX003 (ip), vehicle: saline with Tween-80
[7] = dose: 100.0 mg/kg/injection, schedule: Q01DX009 (ip), vehicle: saline with Tween-80
[8] = dose: 200.0 mg/kg/injection, schedule: Q01DX009 (ip), vehicle: saline with Tween-80
[9] = dose: 400.0 mg/kg/injection, schedule: Q01DX009 (ip), vehicle: saline with Tween-80
[10] = dose: 12.5 mg/kg/injection, schedule: Q01DX005 (ip), vehicle: distilled water + Tween-80
[11] = dose: 25.0 mg/kg/injection, schedule: Q01DX005 (ip), vehicle: distilled water + Tween-80
[12] = dose: 50.0 mg/kg/injection, schedule: Q01DX005 (ip), vehicle: distilled water + Tween-80

Measured: T/C

C=C1C(=O)OCC2C(C(=O)O)=CC3C(C)C(C)=CC123 (configuration not stated)
inactive: dose: 20.0 mg/kg/injection, schedule: Q04DX003 (ip), vehicle: saline with Tween-80 109 % of control | dose: 40.0 mg/kg/injection, schedule: Q04DX003 (ip), vehicle: saline with Tween-80 121 % of control | dose: 80.0 mg/kg/injection, schedule: Q04DX003 (ip), vehicle: saline with Tween-80 120 % of control

CC(C)OC(=O)N(C(=O)OC(C)C)c1ccc(F)cc1
inactive: [1] 91 % of control | [2] 97 % of control | [3] 94 % of control

CCC[P+](c1ccccc1)(c1ccccc1)c1ccccc1
inactive: dose: 3.13 mg/kg/injection, schedule: Q01DX009 (ip), vehicle: saline 106 % of control | dose: 6.25 mg/kg/injection, schedule: Q01DX009 (ip), vehicle: saline 113 % of control | dose: 12.5 mg/kg/injection, schedule: Q01DX009 (ip), vehicle: saline 120 % of control | dose: 25.0 mg/kg/injection, schedule: Q01DX009 (ip), vehicle: saline 117 % of control | dose: 75.0 mg/kg/injection, schedule: Q01DX001 (ip), vehicle: other 93 % of control

O=C(COc1ccc(Cl)cc1Cl)Nc1ccc(F)cc1
inactive: [4] 88 % of control | [5] 90 % of control | [6] 89 % of control

S=c1[nH]nc2n1NC(c1ccccc1)=NN2
inactive: [7] 104 % of control | [4] 91 % of control | [8] 112 % of control | [5] 96 % of control | [9] 106 % of control | [6] 101 % of control

CC(=O)OC1COC(n2c(=S)n(-c3ccccc3)c(=N)c3ccccc32)C(OC(C)=O)C1OC(C)=O (configuration not stated)
inactive: [10] 90 % of control | [11] 87 % of control | [12] 93 % of control | dose: 200.0 mg/kg/injection, schedule: Q01DX005 (ip), vehicle: distilled water + Tween-80 92 % of control

O=C(OCC1OC(n2nc(N3CCOCC3)c(=O)[nH]c2=O)C(OC(=O)c2ccccc2)C1OC(=O)c1ccccc1)c1ccccc1 (configuration not stated)
inactive: [10] 98 % of control | [11] 103 % of control | [12] 92 % of control

C1OCN2CSCC12 (configuration not stated)
inactive: dose: 12.5 mg/kg/injection, schedule: Q01DX009 (ip), vehicle: saline with Tween-80 93 % of control and 96 % of control | dose: 25.0 mg/kg/injection, schedule: Q01DX009 (ip), vehicle: saline with Tween-80 98 % of control and 100 % of control | dose: 50.0 mg/kg/injection, schedule: Q01DX009 (ip), vehicle: saline with Tween-80 98 % of control and 102 % of control | [7] 101 % of control and 103 % of control | [8] 104 % of control and 108 % of control | [9] 110 % of control

CCC1(c2ccc(O)cc2)C(=O)NC(=O)NC1=O
inactive: dose: 100.0 mg/kg/injection, schedule: Q01DX001 (ip), vehicle: saline 96 % of control | dose: 200.0 mg/kg/injection, schedule: Q01DX001 (ip), vehicle: saline 89 % of control | dose: 400.0 mg/kg/injection, schedule: Q01DX001 (ip), vehicle: saline 96 % of control

COc1cc(C2=N/C(=C\c3ccc(Cl)c(Cl)c3)C(=O)O2)cc(OC)c1OC
inactive: [1] 114 % of control | [2] 95 % of control | [3] 100 % of control

Cc1ccc(Cl)cc1NC(=O)OCC(C)C
inactive: [1] 90 % of control | [2] 93 % of control | [3] 90 % of control

O=C(c1cccnc1)c1cn(C2OC(CO)C(O)C(O)C2O)c2ccccc12 (configuration not stated)
inactive: dose: 12.5 mg/kg/injection, schedule: Q01DX005 (ip), vehicle: other 93 % of control | dose: 25.0 mg/kg/injection, schedule: Q01DX005 (ip), vehicle: other 97 % of control | dose: 50.0 mg/kg/injection, schedule: Q01DX005 (ip), vehicle: other 104 % of control | dose: 100.0 mg/kg/injection, schedule: Q01DX005 (ip), vehicle: other 97 % of control | dose: 200.0 mg/kg/injection, schedule: Q01DX005 (ip), vehicle: other 95 % of control

Source: PubChem BioAssay AID256 (DTP/NCI, 2004)
